Several values for one entry are separate records, joined by “and”; a condition that tells them apart may be missing. Identical values can stand only once. Entries after “also recorded” stand apart in the source; their conditions may differ. Like-named read-outs stand apart in the source and are kept apart here.
Columns and labels:
[1] = tested on: human breast cancer cell line MCF-7; test: Antitumor effects, cell viability (XTT method); assay type: cell-based; details: FIG. 9
Method: (§1) The antitumor effects of the chelating agents of test groups 1 to 10 on each of human lung cancer cell line A549, human liver cancer cell line PLC, and human colon adenocarcinoma cell line HCT116 were confirmed. A549 cells or PLC cells were seeded at 3000 cells/well, and HCT116 cells were seeded at 6000 cells/well. After 24 hours, the fetal bovine serum (FBS) concentration was changed from 10% to 1%, each compound of the test groups 1 to 10 was introduced into medium. Cell viability was confirmed after 48 hours by the Trypan blue method, or, cell viability was confirmed after 48 hours by performing medium exchange and then after 24 hours by performing the XTT method. Deferoxamine mesylate (Desferal (Trademark)) was used as a positive control. Results are as depicted in FIGS. 1A, 1B, 2 and 3.
(§2) Moreover, similarly to the above experiment on antitumor effects, the antitumor effects of the chelating agent of test group 6 or 10 on each of human breast cancer cell line MCF-7 and human oral squamous cell carcinoma HSC-2 were confirmed.

[2] = tested on: human oral squamous cell carcinoma HSC-2; test: Antitumor effects, cell viability (XTT method); assay type: cell-based; details: FIG. 10
Method: as §1, §2

[3] = tested on: subcutaneously-transplanted HCT116 cells; assay type: in vivo, nude mice (BALB/c nu/nu); details: mouse, in vivo, 200 mg/kg/day
Method: Next, the antitumor effects of the chelating agents of test groups 6 and 10 on HCT116-cell subcutaneous transplantation model mice, into which HCT116 cells had been subcutaneously transplanted, were confirmed. Mice prepared herein were nude mice (BALB/c nu/nu, 6 weeks old: Clea Japan Inc.). HCT116 cells were adjusted at 3×10^6/mouse, and then mixed with Matrigel (BD Biosciences) at 1:1. The thus obtained mixture was administered to mice, thereby preparing subcutaneous tumors. The dosage was 200 mg/kg/day (5 times/week administration). […] Tissue sections of HCT116 cells subcutaneously transplanted into the test group 10 administration group were prepared, and then hematoxylin-eosin (HE) staining, and TUNEL staining were performed by the above-mentioned method.

[4] = assay type: in vivo; parameters: NEFA: unit not given here; details: for Body weight: rats
Method: To a negative control group (saline administration; n=6), the same amount of saline was administered. On day 14 after administration, determining life or death, measurement of body weight, physical items (respiration, body temperature, behavior, etc.) were observed. Moreover, blood samples were taken from each group, and the right kidneys and the livers were removed. Results were as depicted in FIG. 5A to 5C and Tables 4 to 9.

[5] = tested on: C. albicans (ATCC10231; Candida albicans); test: Minimum growth inhibition concentration (MIC); assay type: cell-based; details: 24 hours
Method: (§3) The dilution series of the chelating agent of each test group was prepared according to a standard method, microbes were inoculated, and then 24 hours later, the microbial growth was confirmed, thereby determining the minimum growth inhibition concentration of the chelating agent of each test group. Microbes used herein were S. aureus (ATCC6538; Staphylococcus aureus), P. aeruginosa (ATCC9027; Pseudomonas aeruginosa) and C. albicans (ATCC10231; Candida albicans). Drugs used herein were oxacillin, vancomycin and deferasirox as positive controls.

[6] = tested on: P. aeruginosa (ATCC9027; Pseudomonas aeruginosa); test: Minimum growth inhibition concentration (MIC); assay type: cell-based
Method: as §3

[7] = tested on: S. aureus (ATCC6538; Staphylococcus aureus); test: Minimum growth inhibition concentration (MIC); assay type: cell-based
Method: as §3

S. mutans (ATCC25175) = test: Antibacterial activity, turbidity and ATP assay; assay type: cell-based, Streptococcus mutans; details: aerobic culture 37° C., 18 hours; FIGS. 6A, 6B
Method: First, the antibacterial activity of a dental caries-causing bacterium, S. mutans (ATCC25175) was examined. With the use of a liquid medium prepared by adding a yeast extract and the chelating agent of each test group to TSB medium, aerobic culture was performed at 37° C. for 18 hours, and then turbidity was found from optical density (OD570 or 595 nm). Cell activity was measured using an ATP assay kit (Kikkoman Corporation). Results were as depicted in FIGS. 6A and 6B.

[8] = tested on: A. actinomycetemcomitans AaY4 (ATCC); test: Antibacterial activity, turbidity and ATP assay; assay type: cell-based, Aggregatibacter actinomycetemcomitans; details: anaerobic culture 37° C., 18 hours; FIGS. 7A, 7B
Method: A bacterial strain of one of periodontopathic bacteria, A. actinomycetemcomitans, used herein was AaY4 (ATCC). With the use of a liquid medium prepared by adding a yeast extract, sodium bicarbonate and the chelating agent of each test group to TSB medium, anaerobic culture (Anaeropack-anaerobic) was performed at 37° C. for 18 hours. Turbidity was measured using absorbance (OD570 or 595 nm), and cell activity was measured using an ATP assay kit. Results were as depicted in FIGS. 7A and 7B.

HSC-2 cells = test: Apoptosis induction, TUNEL staining; assay type: cell-based, human; details: 100 μg/mL, 48 hours, FIG. 11A
Method: (§4) Furthermore, the apoptosis-inducing effects of the chelating agents of test groups 6 and 10 on tumors were confirmed. First, 100 μg/mL of the chelating agent of test group 6 or 50 μg/mL of the chelating agent of test group 10 was added to HSC-2 cells in a culture solution. After 48 hours of reaction, TUNEL Assay was carried out. Specifically, apoptosis induction was evaluated by the TUNEL staining method using a MK500 in situ Apoptosis Detection Kit (Takara Bio Inc.).

HCT116 cells = test: Apoptosis induction, TUNEL staining; assay type: cell-based, human; details: 10 μg/mL, 48 hours, FIG. 11B
Method: as §4
Similarly, the apoptosis-inducing effects of the chelating agent of test group 6 or 10 on HCT116 cells were confirmed. 10 μg/mL of the chelating agent of test group 6 was added and 6.5 µg/mL of the chelating agent of test group 10 was added to the cells. After 48 hours of reaction, TUNEL staining was carried out similarly to the above.

[9] = rat blood, oral 200 mg/kg, day 14
[10] = rat blood, oral 1000 mg/kg, day 14, 1000 mg/kg

## Cl.OCC1OC(O)C(NCc2ccc(O)c(O)c2O)C(O)C1O (centres unmarked) [Test group 6]
[1]
  antitumor effects on MCF-7 (cell viability): exhibit antitumor effects
[2]
  antitumor effects on HSC-2 (cell viability): exhibit antitumor effects
[3]
  body weight change: no body weight change due to administration was observed
[4]; [9]
  ALP: 745 IU/L
  ALT: 34 IU/L
  AST: 58 IU/L
  BUN: 27.2 mg/dL
  CRE: 0.37 mg/dL
  Ca: 10.2 mg/dL
  GLU: 212 mg/dL
  K: 3.6 mEQ/L
  LD: 45 IU/L
  NEFA: 58
  Na: 141 mEQ/L
  T-Bil: 0.03 mg/dL
  TP: 5.1 g/dL
[4]; [10]
  ALP: 437 IU/L and 471 IU/L
  BUN: 22.2 mg/dL and 28.9 mg/dL
  CRE: 0.31 mg/dL and 0.48 mg/dL
  Ca: 10.2 mg/dL and 11.0 mg/dL
  GLU: 159 mg/dL and 199 mg/dL
  K: 4.5 mEQ/L and 4.1 mEQ/L
  Na: 144 mEQ/L and 143 mEQ/L
  TP: 5.4 g/dL and 5.1 g/dL
[4]; oral 200 mg/kg
  Body weight: 180.37 g
[4]; oral 1000 mg/kg, 1000 mg/kg
  Body weight: 174.48 g and 178.68 g
[5]
  MIC C. albicans: >800 µg/mL
[6]; 24 hours
  MIC P. aeruginosa: 400 µg/mL
[6]; from Table 10
  antimicrobial effects on P. aeruginosa (in words): exhibited antimicrobial effects
[7]; 24 hours
  MIC S. aureus: 400 µg/mL
[7]; from Table 10
  antimicrobial effects on S. aureus (in words): strong antimicrobial effects
S. mutans (ATCC25175)
  antimicrobial effects on S. mutans (turbidity, ATP activity): strong antimicrobial effects; also recorded: very strong antibacterial activity
[8]
  antimicrobial effects on A. actinomycetemcomitans (turbidity, ATP activity): strong antimicrobial effects
HSC-2 cells
  apoptosis-inducing effects (TUNEL staining): green-stained cells indicating apoptosis were confirmed
HCT116 cells
  apoptosis-inducing effects (TUNEL staining): green-stained cells indicating apoptosis were confirmed
